Data on one substance can be found in patent US7776826B2, “Method for fostering bone formation and preservation” (Unigene Laboratories, Inc., priority 2004, dated 2010).

In this experiment the test system is Male Sprague-Dawley rats. Kind of experiment: pQCT analysis of left and right femoral shafts at day 21, Groups K-R. The format is in vivo, rat. The source says: FIG. 10 (a-b) presents high resolution radiograms of the left and right femurs, respectively, from an additional series of experiments on additional groups of male Sprague-Dawley rats (6 rats per group) aged 9 weeks which were sacrificed and tested after 21 days (3 weeks). The various groups were subjected to the following treatment modalities: Group K—control day 0; Group L—control day 21; Group M—bone marrow ablation (bmx) day 0; Group N—sham day 21; Group O— bmx+phosphate buffer saline (PBS) daily for 21 days; Group P—bmx+PTH[1-34]-NH2 daily for 21 days; Group Q—bmx+ parathyroid hormone related peptide (PTHRP) daily for 21 days; and Group R—bmx+rat α-calcitonin gene related peptide (CGRP) daily for 21 days;
FIG. 11 (a-d) are graphical representations of the results of Peripheral Quantitative Computerized Tomography (PQCT) analyses of, respectively, the left (ablated) and right (non-ablated) femoral shafts of the rats from Groups K-R (see description of FIG. 10). FIGS. 11(a) and 11(b) illustrate the trabecular bone density observed in, respectively the left and right femoral shafts at day 21; whereas, FIGS. 11(c) and 11(d) illustrate the total bone density of, respectively, the left and right femoral shafts at the same interval. The meanings of the abbreviations used in FIGS. 11(a-d) are identical to those described above with regard to FIG. 10. […] [+=p value<0.01 vs. sham; *=p value<0.01 vs. bmx+PTH; **=p value<0.01 vs. bmx+PTH; and #=p value<0.05 vs. PBS];
An additional series of experiments was thereafter carried out with additional groups of rats (K-R) in order to (1) measure the effect of additional bone anabolic agents, i.e., other than parathyroid hormone (PTH[1-34]-NH2) and calcitonin, as well as to compare the effect(s) achieved with such parathyroid hormone with those obtained with the use of alternate anabolic agents, including parathyroid hormone related peptide (PTHrP) and calcitonin gene related peptide (CGRP). As in the case of the analyses discussed above with regard to FIGS. 3-9, in the animals tested only the left femur underwent the bone marrow ablation (bmx) procedure, i.e., there was no ablation of the right femur. Thus, as noted above, any views of the right femur in the figures described below indicating bone marrow ablation (bmx) as a treatment modality should be taken to mean that such treatment was applied to the corresponding left femur. Further, as was additionally the case above, the samples described below with regard to FIGS. 10-13 were taken from the femur shafts, rather than the corresponding distal epiphysis as in the case of FIGS. 1 and 2. The figures discussed below depict the results of end-point studies wherein the measurements were taken only at the 21 day end-point.
FIG. 11 (a-d) graphically illustrates, by means of a bar graph, the improvements in trabecular bone density and, to some extent, total bone density, in the left femoral shaft of rats subjected to the treatment modalities described above with regard to FIG. 10 (a-b); that is, control day 0; bmx day 0; control day 21; sham day 21; bmx+PBS on day 21; bmx+PTH on day 21; bmx+PTHrP on day 21; and bmx+CGRP on day 21. Again, this is attributable that (only) the left femur was subjected to the bmx treatment, and thus was the only femur wherein the effects of such bmx treatment overlapped with that of the systemic treatment with the bone anabolic agent. […] In contrast to the values obtained for the left femur, no significant amount of bone was formed in the right femur, notwithstanding whether it is trabecular bone density or total bone density which is being measured. This lack of new bone is, furthermore, attributable to the fact that the right femur had not been subjected to the bone marrow ablation (bmx) treatment.

Setting [1] is: ablated femur, day 21, agent daily for 21 days, Groups K-R.
Where [2] appears, read: non-ablated femur, day 21, agent daily for 21 days, Groups K-R.

For the substance PTH[1-34]-NH2, under setting [1], the “Left femoral shaft Total density mean” value is 1100.2 mg/mL and the “Left femoral shaft Trabecular density mean” value was determined as 540.7 mg/mL. In addition, for the setting “bmx, day 21”, the “trabecular bone density of left femoral shaft, in words” value is recorded as “significantly improved”. For the same substance, under setting [2], the “Right femoral shaft Total density mean” value was found to be 899.5 mg/mL and the “Right femoral shaft Trabecular density mean” value was 128.3 mg/mL.
